Data as given in the NIST ThermoML archive (doi:10.1016/j.fluid.2008.03.004).

Experiment: xn = mol fraction of the nth substance listed
Details: 101 kPa, Liquid; for speed of sound: Sing-around technique in a fixed-path interferometer

CCOC(C)(C)C [2-ethoxy-2-methylpropane] + Cc1cccc(C)c1
Details	mass density [kg/m3]	speed of sound [m/s]
288.15 K, x1 = 0.05	862.187	1345.6
288.15 K, x1 = 0.099	856.037	1332.2
288.15 K, x1 = 0.2	843.698	1303.2
288.15 K, x1 = 0.3	831.159	1274.6
288.15 K, x1 = 0.4	818.865	1245.5
288.15 K, x1 = 0.497	806.713	1217.2
288.15 K, x1 = 0.598	794.326	1188.6
288.15 K, x1 = 0.698	782.295	1161.7
288.15 K, x1 = 0.8	770.134	1133.6
288.15 K, x1 = 0.898	757.936	1106.8
288.15 K, x1 = 0.95	751.668	1092.8
288.15 K, x1 = 1	744.955	1076.4
290.65 K, x1 = 0.05	860.034	1334.7
290.65 K, x1 = 0.099	853.866	1321.5
290.65 K, x1 = 0.2	841.488	1292.6
290.65 K, x1 = 0.3	828.907	1263.8
290.65 K, x1 = 0.4	816.576	1234.8
290.65 K, x1 = 0.497	804.386	1206.4
290.65 K, x1 = 0.598	791.955	1177.8
290.65 K, x1 = 0.698	779.883	1150.8
290.65 K, x1 = 0.8	767.68	1122.5
290.65 K, x1 = 0.898	755.44	1096
290.65 K, x1 = 0.95	749.148	1081.9
290.65 K, x1 = 1	742.482	1065.1
293.15 K, x1 = 0.05	857.873	1324.1
293.15 K, x1 = 0.099	851.684	1310.9
293.15 K, x1 = 0.2	839.267	1282
293.15 K, x1 = 0.3	826.644	1253.1
293.15 K, x1 = 0.4	814.272	1224.1
293.15 K, x1 = 0.497	802.042	1195.6
293.15 K, x1 = 0.598	789.571	1167
293.15 K, x1 = 0.698	777.456	1140
293.15 K, x1 = 0.8	765.209	1111.5
293.15 K, x1 = 0.898	752.927	1085.2
293.15 K, x1 = 0.95	746.612	1070.8
293.15 K, x1 = 1	739.947	1053.7
295.65 K, x1 = 0.05	855.708	1313.4
295.65 K, x1 = 0.099	849.502	1300.3
295.65 K, x1 = 0.2	837.044	1271.3
295.65 K, x1 = 0.3	824.379	1242.3
295.65 K, x1 = 0.4	811.966	1213.3
295.65 K, x1 = 0.497	799.693	1184.7
295.65 K, x1 = 0.598	787.18	1156
295.65 K, x1 = 0.698	775.026	1129.1
295.65 K, x1 = 0.8	762.735	1100.5
295.65 K, x1 = 0.898	750.406	1074.1
295.65 K, x1 = 0.95	744.068	1059.8
295.65 K, x1 = 1	737.374	1042.2
298.15 K, x1 = 0.05	853.541	1302.9
298.15 K, x1 = 0.099	847.315	1289.8
298.15 K, x1 = 0.2	834.815	1260.8
298.15 K, x1 = 0.3	822.108	1231.6
298.15 K, x1 = 0.4	809.656	1202.6
298.15 K, x1 = 0.497	797.343	1173.8
298.15 K, x1 = 0.598	784.785	1145.1
298.15 K, x1 = 0.698	772.587	1118.2
298.15 K, x1 = 0.8	760.251	1089.5
298.15 K, x1 = 0.898	747.878	1063
298.15 K, x1 = 0.95	741.515	1048.7
298.15 K, x1 = 1	734.806	1031
300.65 K, x1 = 0.05	851.372	1292.5
300.65 K, x1 = 0.099	845.128	1279.3
300.65 K, x1 = 0.2	832.584	1250.2
300.65 K, x1 = 0.3	819.837	1221
300.65 K, x1 = 0.4	807.341	1191.8
300.65 K, x1 = 0.497	794.987	1163.1
300.65 K, x1 = 0.598	782.385	1134.2
300.65 K, x1 = 0.698	770.145	1107.3
300.65 K, x1 = 0.8	757.762	1078.4
300.65 K, x1 = 0.898	745.343	1051.9
300.65 K, x1 = 0.95	738.954	1037.6
300.65 K, x1 = 1	732.225	1019.8
303.15 K, x1 = 0.05	849.201	1282.1
303.15 K, x1 = 0.099	842.934	1268.9
303.15 K, x1 = 0.2	830.351	1239.8
303.15 K, x1 = 0.3	817.559	1210.3
303.15 K, x1 = 0.4	805.022	1181.2
303.15 K, x1 = 0.497	792.628	1152.3
303.15 K, x1 = 0.598	779.979	1123.3
303.15 K, x1 = 0.698	767.695	1096.3
303.15 K, x1 = 0.8	755.266	1067.5
303.15 K, x1 = 0.898	742.8	1040.8
303.15 K, x1 = 0.95	736.382	1026.5
303.15 K, x1 = 1	729.647	1008.6
305.65 K, x1 = 0.05	847.026	1271.7
305.65 K, x1 = 0.099	840.74	1258.6
305.65 K, x1 = 0.2	828.116	1229.3
305.65 K, x1 = 0.3	815.278	1199.8
305.65 K, x1 = 0.4	802.699	1170.5
305.65 K, x1 = 0.497	790.26	1141.6
305.65 K, x1 = 0.598	777.566	1112.5
305.65 K, x1 = 0.698	765.236	1085.4
305.65 K, x1 = 0.8	752.76	1056.5
305.65 K, x1 = 0.898	740.246	1029.8
305.65 K, x1 = 0.95	733.801	1015.3
305.65 K, x1 = 1	727.038	997.52
308.15 K, x1 = 0.05	844.847	1261.4
308.15 K, x1 = 0.099	838.542	1248.3
308.15 K, x1 = 0.2	825.874	1219
308.15 K, x1 = 0.3	812.993	1189.3
308.15 K, x1 = 0.4	800.369	1159.9
308.15 K, x1 = 0.497	787.887	1131
308.15 K, x1 = 0.598	775.147	1101.7
308.15 K, x1 = 0.698	762.77	1074.5
308.15 K, x1 = 0.8	750.245	1045.6
308.15 K, x1 = 0.898	737.68	1018.8
308.15 K, x1 = 0.95	731.212	1004.3
308.15 K, x1 = 1	724.443	986.39
310.65 K, x1 = 0.05	842.667	1251.2
310.65 K, x1 = 0.099	836.338	1238
310.65 K, x1 = 0.2	823.629	1208.6
310.65 K, x1 = 0.3	810.701	1178.8
310.65 K, x1 = 0.4	798.033	1149.3
310.65 K, x1 = 0.497	785.51	1120.3
310.65 K, x1 = 0.598	772.72	1091
310.65 K, x1 = 0.698	760.296	1063.7
310.65 K, x1 = 0.8	747.726	1034.7
310.65 K, x1 = 0.898	735.108	1007.8
310.65 K, x1 = 0.95	728.609	993.27
310.65 K, x1 = 1	721.826	975.42
313.15 K, x1 = 0.05	840.482	1241
313.15 K, x1 = 0.099	834.132	1227.8
313.15 K, x1 = 0.2	821.379	1198.3
313.15 K, x1 = 0.3	808.405	1168.3
313.15 K, x1 = 0.4	795.695	1138.9
313.15 K, x1 = 0.497	783.123	1109.8
313.15 K, x1 = 0.598	770.288	1080.4
313.15 K, x1 = 0.698	757.817	1053
313.15 K, x1 = 0.8	745.2	1024
313.15 K, x1 = 0.898	732.523	996.88
313.15 K, x1 = 0.95	726.007	982.39
313.15 K, x1 = 1	719.179	964.53
315.65 K, x1 = 0.05	838.29	1230.9
315.65 K, x1 = 0.099	831.922	1217.6
315.65 K, x1 = 0.2	819.125	1188
315.65 K, x1 = 0.3	806.105	1157.9
315.65 K, x1 = 0.4	793.351	1128.5
315.65 K, x1 = 0.497	780.733	1099.2
315.65 K, x1 = 0.598	767.848	1069.7
315.65 K, x1 = 0.698	755.328	1042.3
315.65 K, x1 = 0.8	742.656	1013.2
315.65 K, x1 = 0.898	729.931	985.99
315.65 K, x1 = 0.95	723.382	971.39
315.65 K, x1 = 1	716.527	953.54
318.15 K, x1 = 0.05	836.094	1220.7
318.15 K, x1 = 0.099	829.704	1207.4
318.15 K, x1 = 0.2	816.865	1177.8
318.15 K, x1 = 0.3	803.8	1147.6
318.15 K, x1 = 0.4	790.999	1118
318.15 K, x1 = 0.497	778.333	1088.7
318.15 K, x1 = 0.598	765.399	1059.2
318.15 K, x1 = 0.698	752.842	1031.8
318.15 K, x1 = 0.8	740.101	1002.4
318.15 K, x1 = 0.898	727.323	975.1
318.15 K, x1 = 0.95	720.743	960.42
318.15 K, x1 = 1	713.96	942.67
320.65 K, x1 = 0.05	833.892	1210.6
320.65 K, x1 = 0.099	827.484	1197.3
320.65 K, x1 = 0.2	814.602	1167.6
320.65 K, x1 = 0.3	801.489	1137.3
320.65 K, x1 = 0.4	788.639	1107.6
320.65 K, x1 = 0.497	775.926	1078.3
320.65 K, x1 = 0.598	762.944	1048.6
320.65 K, x1 = 0.698	750.335	1021.1
320.65 K, x1 = 0.8	737.539	991.66
320.65 K, x1 = 0.898	724.705	964.24
320.65 K, x1 = 0.95	718.093	949.5
320.65 K, x1 = 1	711.25	931.73
323.15 K, x1 = 0.05	831.689	1200.6
323.15 K, x1 = 0.099	825.258	1187.2
323.15 K, x1 = 0.2	812.331	1157.4
323.15 K, x1 = 0.3	799.17	1127
323.15 K, x1 = 0.4	786.273	1097.3
323.15 K, x1 = 0.497	773.51	1067.8
323.15 K, x1 = 0.598	760.487	1038.2
323.15 K, x1 = 0.698	747.817	1010.4
323.15 K, x1 = 0.8	734.964	980.96
323.15 K, x1 = 0.898	722.075	953.5
323.15 K, x1 = 0.95	715.433	938.66
323.15 K, x1 = 1	708.642	920.73
